Ends that are not written are not given here.
Tested on: NHK (Null Hong Kong variant of alpha1-antitrypsin)
Test: CHX chase: NHK degradation in HT1080 AUP1 KO cells
Type: cell-based, human
Method: Fig 1 The G2BR of AUP1 is required for ERAD of NHK. (A) HT1080 or cells in which HRD1 was knocked out by CRISPR/Cas-9 (HRD1 KO) were transfected with plasmid encoding carboxyl-terminally HA-tagged NHK. Cells were treated with CHX for the indicated times to inhibit protein synthesis and NHK-HA degradation monitored by western blot. GFP and HSP60 serve as transfection efficiency and gel loading controls, respectively. (B) HT1080 or cells in which either AUP1 or gp78 was knocked out (AUP1 KO or gp78 KO) were transfected with NHK-HA and their degradation assessed. (C) AUP1 KO cells were transfected with NHK-HA and empty vector or plasmid encoding carboxyl-terminally FLAG-tagged AUP1 and NHK degradation assessed. (D) Indicated cells were transfected with plasmid encoding carboxyl-terminally MYC-tagged INSIG-1 and assessed for INSIG-1 degradation. (E) Schematic representation of AUP1 in the ER membrane and deletion mutants used in subsequent experiments. Amino acid residues are numbered spanning each domain. (F) AUP1 KO cells were transfected with NHK-HA and plasmids encoding the indicated FLAG-tagged AUP1 WT or deletion mutants and assessed for NHK degradation. (G) HEK293 (Parental) or HEK293 AUP1 KO cells were assessed for degradation of NHK-HA. (H) HEK293 AUP1 KO cells were assessed for NHK-HA degradation as in (F). Markers represent apparent molecular weight in kDa. The data underlying this figure can be found in S1 Data. aa, amino acid; AUP1, ancient ubiquitous protein 1; CHX, cycloheximide; ER, endoplasmic reticulum; ERAD, endoplasmic reticulum–associated degradation; G2BR, UBE2G2 Binding Region; KO, knockout; NHK, Null Hong Kong; WT, wild type.
Fig 6 Disruption of UBE2G2:G2BR^AUP1 interaction abrogates AUP1 function in cells. (A) GST or indicated GST-AUP1 fusions (aa 292 to 410, expression shown in Coomassie-stained gel) were immobilized on glutathione beads and binding to ^35S-UBE2G2 was assessed as in Fig 3A. Mutations include 2A (R382A/Q383A), 2E (R382E/Q383E), and 5E (R382E/Q383E/K390E/R398E/R400E). (B) AUP1 KO cells were transfected with NHK-HA and forms of full-length AUP1-FLAG with the indicated point mutations from (A) and NHK degradation assessed by CHX chase. (C) Binding assay performed as in (A) with AUP1 mutants predicted to disrupt hydrophobic interactions with UBE2G2. (D) Cellular assay performed as in (B) with AUP1-FLAG mutants that disrupt interactions with UBE2G2 in vitro in (C). The data underlying this figure can be found in S1 Data. aa, amino acid; AUP1, ancient ubiquitous protein 1; CHX, cycloheximide; G2BR, UBE2G2 Binding Region; KO, knockout; WT, wild type.
Fig 8 Recruitment of UBE2G2 to the ER membrane and activation by G2BR^AUP1 is required for ERAD. (A) HT1080 or AUP1 KO cells were transfected with NHK-HA and either empty vector or MYC-UBE2G2 and NHK turnover assessed by CHX chase. (B) AUP1 KO cells were transfected with NHK-HA and GFP fusions of either a scrambled G2BR sequence (SCR) or G2BR^AUP1 and NHK turnover and levels of endogenous UBE2G2 assessed. Luciferase and β-actin served as transfection efficiency and gel loading controls, respectively. (C) AUP1 KO cells were transfected with NHK-HA, MYC-UBE2G2, and either GFP-SCR or GFP-G2BR^AUP1 and NHK turnover assessed. (D) Membrane fractionation was performed on HT1080 or AUP1 KO cells transfected with either empty vector or AUP1-FLAG and localization of UBE2G2 assessed by western blotting. Localization of β-actin (cytosol) and Calnexin (ER membrane) were used as controls for cytosolic (C) and membrane (M) fractions, respectively. (E) Membrane fractionation of AUP1 KO cells transfected with either MYC-UBE2G2 or TM-UBE2G2. (F) HT1080 cells were transfected with TM-UBE2G2 and its localization assessed by confocal microscopy. Images shown are from an optical section after deconvolution. HA-tagged UBE2J2, an ER-localized E2, serves as an ER marker. […]

Molecule	NHK degradation, soluble G2BR alone (GFP fusion overexpressed without UBE2G2, HT1080 AUP1 KO)	NHK degradation, soluble G2BR with UBE2G2 (GFP-G2BR^AUP1 co-expressed with MYC-UBE2G2, HT1080 AUP1 KO)	NHK degradation, soluble G2BR with TM-UBE2G2 (GFP-G2BR^AUP1 co-expressed with TM-UBE2G2, HT1080 AUP1 KO)	NHK degradation, UBE2G2 overexpression (UBE2G2 form transfected without G2BR, HT1080 AUP1 KO)
GFP-G2BR^AUP1: GFP fusion of AUP1 aa 378 to 404 (SSWARQESLQERKQALYEYARRRFTER; also: GFP fusion; UniProt Q9Y679 378-404, looked up, fragment)	insufficient to reconstitute NHK degradation	did not restore NHK degradation	fully restored	–
UBE2G2: ERAD ubiquitin-conjugating enzyme (E2); purified in vitro, N-terminally MYC-tagged in cells (protein) MAGTALKRLMAEYKQLTLNPPEGIVAGPMNEENFFEWEALIMGPEDTCFEFGVFPAILSFPLDYPLSPPKMRFTCEMFHPNIYPDGRVCISILHAPGDDPMGYESSAERWSPVQSVEKILLSVVSMLAEPNDESGANVDASKMWRDDREQFYKIAKQIVQKSLGL	–	–	–	did not restore NHK degradation

— article PMC8699718, “A structurally conserved site in AUP1 binds the E2 enzyme UBE2G2 and is essential for ER-associated degradation” (PLoS Biology, 2021)
